For 79 molecules, AC40 results are on record in PubChem BioAssay AID687000 (Broad Institute, 2013).

Where “and” joins values, the source holds several entries; their conditions need not be identical. Equal entries are not always repeated. Calls of active or inactive are those of the source.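 How the source made its calls: active means fitted dose curve reaches 40% lysis signal rise at or below the highest valid concentration tested for that sample; inconclusive means flat fit between 30% and 70%, or poor curve fit; inactive means signal falls, stays flat within 30%, or no crossing.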

For this assay, the system named is C. neoformans lysis, adenylate kinase release luminescence, 4 h. Description: inducers of Cryptococcus neoformans cell lysis, dose response, AK release luminescence, cherry-picks (AID 687000).
Take `COC(=O)C1=C(C)N(Cc2ccc(Br)cc2)C(=S)NC1c1cccc(Cl)c1` (centres undefined): the AC40 is 1.17 µM.

Regarding `Cc1ccc(S(=O)(=O)N[C@H]2C=C[C@@H](CC(=O)N3CCC(Cc4ccccc4)CC3)O[C@H]2CO)cc1`, the AC40 is > 15 µM (inactive).

`CCOc1ccc(CNC(=S)NCc2ccc(OCC)cc2)cc1`: the AC40 is > 15 µM (inactive).

Consider `C[C@@H]1CCCCO[C@H](CN(C)S(=O)(=O)c2cccs2)[C@@H](C)CN([C@@H](C)CO)C(=O)c2cc(NC(=O)CCC(F)(F)F)ccc2O1`, for which the AC40 is > 15 µM (inactive).

With `COC(=O)C1=C(C)N(Cc2ccc(Cl)cc2)C(=S)NC1c1cccc(Cl)c1` (centres undefined), the AC40 is 2.95 µM.

As to `COCCNC(=O)C[C@H]1C[C@@H]2c3cc(NC(=O)C4CCC4)ccc3O[C@@H]2[C@H](CO)O1`, the AC40 was > 15 µM (inactive).

Regarding `COC(=O)C1=C(C)N(CC(C)C)C(=S)NC1c1ccc(-c2ccccc2)cc1` (centres undefined), the AC40 was > 15 µM (inactive) and 1.4 µM.

Take `Cc1cccc(C)c1NC(=O)CN(C)C(=O)C1CC1C` (centres undefined): the AC40 is > 15 µM (inactive).

For `COC(=O)C1=C(C)N(CC(C)C)C(=S)NC1c1ccc(Cl)cc1` (centres undefined), the AC40 is 2.36 µM and 0.971 µM.

For `Cc1ccc(C(=O)NC(=S)Nc2ccccc2N2CCCC2)cc1[N+](=O)[O-]`, the AC40 is > 15 µM (inactive).

As to `O=C(NC(=S)Nc1ccc(Br)cc1)C1CCC1`, the AC40 is 1.05 µM.

With `COc1cccc(C(=O)NC(=S)Nc2ccccc2N2CCOCC2)c1`, the AC40 was > 15 µM (inactive).

As to `O=C(NC(=S)Nc1cc(Cl)ccc1N1CCOCC1)c1ccccc1[N+](=O)[O-]`, the AC40 is 13.6 µM.

Consider `COC(=O)C1=C(C)N(Cc2ccc(Cl)cc2)C(=S)NC1c1cccc(F)c1` (centres undefined), for which the AC40 was 13.1 µM.

Turning to `Cc1ccc(CSc2ncnc3c2cnn3-c2ccc(C)cc2)cc1`, the AC40 was > 15 µM (inactive).

Take `COc1cccc(NC(=S)N2CCC(Cc3ccccc3)CC2)c1`: the AC40 is 3.35 µM.

Consider `C[C@@H]1CN([C@@H](C)CO)C(=O)Cc2cc(NC(=O)c3ccncc3)ccc2O[C@H]1CN(C)Cc1ccncc1`, for which the AC40 is > 15 µM (inactive).

`CCc1nc(N2CCCCC2C)c2oc3ccccc3c2n1` (centres undefined): the AC40 was 1.65 µM.

Regarding `O=C(Nc1ccccc1N1CCOCC1)c1cccc([N+](=O)[O-])c1`, the AC40 was > 7.5 µM (inactive).

For the molecule `C[C@H]1CN([C@@H](C)CO)C(=O)Cc2cc(N(C)C)ccc2O[C@@H]1CN(C)C(=O)Nc1ccc(C(F)(F)F)cc1`, the AC40 was > 15 µM (inactive).

For `COc1cccc(S(=O)(=O)N(C)C[C@@H]2OCc3ccccc3-c3ccccc3C(=O)N([C@@H](C)CO)C[C@@H]2C)c1`, the AC40 was > 15 µM (inactive).

On to `CC=Cc1ccc2n(c1=O)C[C@@H]1[C@@H](CO)[C@H](C(=O)N3CCc4ccccc4C3)N(C(=O)C3CC3)[C@H]21` (mixture of isomers), for which the AC40 was > 15 µM (inactive).

For the molecule `COC(=O)C1=C(C)N(CC(C)C)C(=S)NC1c1ccc(F)cc1` (centres undefined), the AC40 was 3.52 µM.

Take `CCOC(=O)c1c(-c2ccc(-c3ccccc3)cc2)csc1NC(=O)CNCCN(C)C`: the AC40 was 1.62 µM.

With `COCCN1C(=S)N[C@@H](c2ccccc2)C(C(=O)OC)=C1C`, the AC40 is 13.5 µM.

With `COC(=O)C1=C(C)N(Cc2ccccc2)C(=S)N[C@H]1c1cccc(F)c1`, the AC40 was 11.7 µM.

Take `O=C(CSc1ncnc2c1cnn2-c1cccc(Cl)c1)NCC1CCCO1` (centres undefined): the AC40 was > 15 µM (inactive).

With `S=C(Nc1ccc(Cl)cc1Cl)Nc1ccccc1Oc1ccccc1`, the AC40 is 3.3 µM.

`Cc1ccc2nc(C)c3c(c2c1)OC(C(C)(Cl)Br)C3` (centres undefined): the AC40 was > 15 µM (inactive).

Regarding `COC(=O)C1=C(C)N(Cc2ccc(Br)cc2)C(=S)NC1c1ccc(F)cc1` (centres undefined), the AC40 is 4.62 µM and 7.82 µM.

With `S=C(NCc1ccccc1)NCC1COc2ccccc2O1` (centres undefined), the AC40 was 9.32 µM.

Take `COCC(=O)N(C)C[C@H]1Oc2ncc(-c3ccccc3F)cc2C(=O)N([C@@H](C)CO)C[C@H]1C`: the AC40 is > 15 µM (inactive).

In the case of `C[C@H](CO)N1C[C@H](C)[C@H](CN(C)Cc2ccc(-c3ccccc3)cc2)Oc2c(NC(=O)c3ccncc3)cccc2C1=O`, the AC40 is > 15 µM (inactive).

With `Cc1noc(C)c1NC(=O)N(C)C[C@H]1OCCCC[C@H](C)Oc2ccc(NC(=O)NC(C)C)cc2C(=O)N([C@@H](C)CO)C[C@@H]1C`, the AC40 was > 15 µM (inactive).

Turning to `C[C@@H]1CCCCO[C@@H](CN(C)C(=O)Nc2ccc3c(c2)OCO3)[C@@H](C)CN([C@H](C)CO)C(=O)c2cc(NC(=O)Nc3cccc4ccccc34)ccc2O1`, the AC40 is > 15 µM (inactive).

Turning to `C[C@H](CO)N1C[C@H](C)[C@H](CN(C)Cc2ccccc2)OCCCC[C@H](C)Oc2ccc(NS(=O)(=O)c3cccs3)cc2C1=O`, the AC40 was > 15 µM (inactive).

`C[C@@H]1CN([C@H](C)CO)C(=O)c2cc(C3=CCCCC3)cnc2O[C@H]1CN(C)C(=O)Cc1cccnc1`: the AC40 was > 15 µM (inactive).

In the case of `O=C(NCCN1CCCCC1)[C@H]1N[C@H]2c3ccc(-c4ccncc4)c(=O)n3C[C@H]2[C@@H]1CO`, the AC40 is 12.7 µM.

Consider `COC(=O)C1=C(C)N(Cc2ccccc2)C(=S)N[C@H]1c1cccc(C(F)(F)F)c1`, for which the AC40 is > 15 µM (inactive).

For the molecule `CCCNC(C)C(=O)Nc1ccccc1C` (centres undefined), the AC40 is > 15 µM (inactive).

For the molecule `CCC(=O)N(C)C[C@@H]1Oc2cc(C#CC(C)(C)O)ccc2S(=O)(=O)N([C@H](C)CO)C[C@H]1C`, the AC40 was > 15 µM (inactive).

For the molecule `O=C(NC(=S)Nc1ccccc1N1CCCC1)c1ccccc1[N+](=O)[O-]`, the AC40 was > 15 µM (inactive).

Turning to `CC(C)CC#Cc1cnc2c(c1)C(=O)N([C@H](C)CO)C[C@H](C)[C@@H](CN(C)Cc1cccc(F)c1)O2`, the AC40 was > 15 µM (inactive).

Take `Cc1cccc(-c2ccc([C@H]3[C@H](CO)N4CCCCN(C(=O)c5ccc6c(c5)OCO6)C[C@@H]34)cc2)c1`: the AC40 was > 15 µM (inactive).

For the molecule `Cc1noc(C)c1NC(=O)Nc1ccc2c(c1)C(=O)N([C@@H](C)CO)C[C@H](C)[C@H](CN(C)CC1CCCCC1)O2`, the AC40 was > 15 µM (inactive).

Take `CC(C)CC1(C)N=C(c2ccccc2)C(=S)N1` (centres undefined): the AC40 was 11.2 µM.

With `C[C@@H]1CN([C@H](C)CO)C(=O)Cc2cc(NC(=O)NC3CCCCC3)ccc2O[C@@H]1CN(C)Cc1ccccc1`, the AC40 was > 15 µM (inactive).

For the molecule `Cc1cc(C)c2nc(N3CCN(C(=O)c4cccs4)CC3)sc2c1`, the AC40 was 2.56 µM.

In the case of `CCN1C(=S)N[C@@H](c2ccccc2)C(C(=O)OC)=C1C`, the AC40 was > 15 µM (inactive).

`Cc1cc(C)c(NC(=O)C2CCCN2C(=O)NC2CCCCC2)c(C)c1` (centres undefined): the AC40 is 10.4 µM.

Turning to `Cc1ccc(OCCn2c(=S)[nH]c3ccccc32)c(C(C)C)c1`, the AC40 was 0.883 µM.

For the molecule `CO[C@@H]1CN(C)C(=O)c2cc(NS(=O)(=O)c3cccc(C)c3)ccc2OC[C@@H](C)NC[C@H]1C`, the AC40 was > 15 µM (inactive).

Regarding `CCCC(=O)N1CCC1(C)C(=O)Nc1ccc(C)cc1` (centres undefined), the AC40 was > 28.5 µM (inactive).

Turning to `COc1cccc(NC(=S)NC(=O)Cc2ccc(Cl)cc2)c1`, the AC40 was 1.03 µM.

For `COc1cc2c(C(=O)N(C)c3cc(Cl)ccc3OC)cn(C)c(=O)c2cc1OC`, the AC40 is > 15 µM (inactive).

Regarding `CCc1ccc(C(=O)NC(=S)NCc2cccnc2)cc1`, the AC40 is 8.42 µM.

Turning to `COC(=O)C1=C(C)N(Cc2ccc(F)cc2)C(=S)NC1c1ccccc1` (centres undefined), the AC40 is 2.68 µM.

Regarding `COC(=O)C1=C(C)N(Cc2ccc(F)cc2)C(=S)NC1c1cccc(Br)c1` (centres undefined), the AC40 was 6.51 µM.

On to `CNC[C@@H]1OCCCC[C@@H](C)Oc2ccc(NS(=O)(=O)c3ccc(Cl)cc3)cc2C(=O)N([C@H](C)CO)C[C@H]1C`, for which the AC40 was > 15 µM (inactive).

With `O=C(NC(=S)Nc1ccccc1N1CCOCC1)c1ccc(Br)cc1`, the AC40 was > 15 µM (inactive).

On to `CC(C)NC(=O)Nc1ccc2c(c1)CC(=O)N([C@@H](C)CO)C[C@@H](C)[C@H](CN(C)C(=O)Nc1ccc3c(c1)OCO3)O2`, for which the AC40 is > 15 µM (inactive).

As to `CO[C@H]1CN(C)C(=O)c2cc(NC(=O)C3CC3)ccc2OC[C@@H](C)N(Cc2cncnc2)C[C@H]1C`, the AC40 was 12.9 µM.

For the molecule `COC(=O)C1=C(C)N(Cc2ccccc2)C(=S)NC1c1cccc(Br)c1` (centres undefined), the AC40 is 3.56 µM and > 15 µM (inactive).

`Cc1cc(Cl)ccc1NC(=S)NCc1ccc(F)cc1`: the AC40 was 2.25 µM.

For the molecule `Cc1cc(C)c(NC(=O)C2CCCN2CCC(C)C)c(C)c1` (centres undefined), the AC40 was > 15 µM (inactive).

For the molecule `C[C@H](CO)N1C[C@H](C)[C@H](CN(C)C(=O)Nc2cccc3ccccc23)Oc2ccc(NC(=O)Cc3ccccc3)cc2CC1=O`, the AC40 is > 15 µM (inactive).

For the molecule `COC(=O)C1=C(C)N(Cc2ccccc2)C(=S)N[C@H]1c1ccc(Br)cc1`, the AC40 was 2.89 µM and 9.81 µM.

Consider `Fc1ccccc1NC(=S)NCCc1cccc(Cl)c1`, for which the AC40 was 3.27 µM.

Regarding `Cc1cccc2sc(N3CCN(C(=O)c4cccs4)CC3)nc12`, the AC40 is > 15 µM (inactive).

For the molecule `COC(=O)C1=C(C)N(C)C(=S)NC1c1ccccc1` (centres undefined), the AC40 was > 26 µM (inactive).

`CC(C)NC(=O)N[C@H]1CC[C@@H](CCNC(=O)C2CC2)O[C@H]1CO`: the AC40 was > 15 µM (inactive).

Regarding `CCCN1C[C@H](C)[C@@H](OC)CN(C)C(=O)c2cc(NC(=O)c3cccc(F)c3)ccc2OC[C@@H]1C`, the AC40 is > 15 µM (inactive).

Turning to `C[C@H](CO)N1C[C@H](C)[C@@H](CN(C)CC2CCOCC2)Oc2ncc(C#Cc3ccc(F)cc3)cc2C1=O`, the AC40 was > 15 µM (inactive).

On to `C[C@@H]1CN([C@@H](C)CO)C(=O)CCCn2nncc2CO[C@H]1CN(C)C(=O)Oc1cccc2ccccc12`, for which the AC40 was > 15 µM (inactive).

As to `O=C(NC(=S)Nc1ccccc1N1CCOCC1)c1cccc([N+](=O)[O-])c1`, the AC40 is 5.69 µM.

Consider `O=C(CC1CC1)N1[C@@H]2CN(S(=O)(=O)c3ccccc3)c3ccccc3[C@@H]2[C@@H]1CO`, for which the AC40 was > 16 µM (inactive).

Take `COC(=O)C1=C(C)N(Cc2ccc(F)cc2)C(=S)NC1c1cccc(F)c1` (centres undefined): the AC40 was 14.2 µM and 2.63 µM.

Take `NC(=S)N/N=C/c1ccc(-c2cc(Cl)ccc2Cl)o1`: the AC40 is 0.644 µM.

With `C[C@H](CO)N1C[C@H](C)[C@H](CN(C)C(=O)Nc2ccc3c(c2)OCO3)Oc2ncc(C#CC(C)(C)O)cc2C1=O`, the AC40 was > 15 µM (inactive).
